Test results: the supplement of paper PMC10307832

Experiments:
Experiment in all cases: relative viability (nuclei count vs DMSO), 5 days (fraction); higher = more cells survive
Cediranib + Bortezomib = compound: COc1cc2c(Oc3ccc4[nH]c(C)cc4c3F)ncnc2cc1OCCCN1CCCC1 [Cediranib] + CC(C)C[C@H](NC(=O)[C@H](Cc1ccccc1)NC(=O)c1cnccn1)B(O)O [Bortezomib] (partner 0.002 µM)
Outline: (§1)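 For relative viability, nuclei counts in treated wells were divided by those in vehicle wells. Lung cancer cell lines had been pin-tool dosed in 1536-well plates the day after seeding and cultured for 5 days, then fixed and stained in one step (final 0.05% Triton X-100, 1% formaldehyde, 1 ug/ml Hoechst) and imaged at 4×. Doses were one drug alone or a fixed anchor-drug dose plus five library-drug doses (not always all listed) in √10 steps, and values are duplicate-plate medians.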

Decitabine + Dasatinib = compound: Nc1ncn([C@H]2C[C@H](O)[C@@H](CO)O2)c(=O)n1 [Decitabine] + Cc1nc(Nc2ncc(C(=O)Nc3c(C)cccc3Cl)s2)cc(N2CCN(CCO)CC2)n1 [Dasatinib] (partner 0.075 µM)
Outline: as §1

Cediranib + AZD7762 = compound: COc1cc2c(Oc3ccc4[nH]c(C)cc4c3F)ncnc2cc1OCCCN1CCCC1 [Cediranib] + NC(=O)Nc1cc(-c2cccc(F)c2)sc1C(=O)N[C@H]1CCCNC1 [AZD7762] (partner 0.2 µM)
Outline: as §1

Decitabine + Palbociclib = compound: Nc1ncn([C@H]2C[C@H](O)[C@@H](CO)O2)c(=O)n1 [Decitabine] + CC(=O)c1c(C)c2cnc(Nc3ccc(N4CCNCC4)cn3)nc2n(C2CCCC2)c1=O [Palbociclib] (partner 0.5 µM)
Outline: as §1

Cell Line: NCI-H2087
- relative viability (Cediranib + Bortezomib; first compound 0.04 µM): 0.849
- relative viability (Cediranib + Bortezomib; first compound 0.1265 µM): 0.739
- relative viability (Cediranib + Bortezomib; first compound 0.4 µM): 0.775
- relative viability (Cediranib + Bortezomib; first compound 1.265 µM): 0.722
- relative viability (Cediranib + Bortezomib; first compound 4 µM): 0.697
- relative viability (Decitabine + Dasatinib; first compound 0.04 µM): 0.523
- relative viability (Decitabine + Dasatinib; first compound 0.1265 µM): 0.452
- relative viability (Decitabine + Dasatinib; first compound 0.4 µM): 0.358
- relative viability (Decitabine + Dasatinib; first compound 1.265 µM): 0.246
- relative viability (Decitabine + Dasatinib; first compound 4 µM): 0.23
- relative viability (Cediranib + AZD7762; first compound 0.04 µM): 1.08
- relative viability (Cediranib + AZD7762; first compound 0.1265 µM): 1.34
- relative viability (Cediranib + AZD7762; first compound 0.4 µM): 1.26
- relative viability (Cediranib + AZD7762; first compound 1.265 µM): 1.23
- relative viability (Cediranib + AZD7762; first compound 4 µM): 1.43
- relative viability (Decitabine + Palbociclib; first compound 0.04 µM): 0.204
- relative viability (Decitabine + Palbociclib; first compound 0.1265 µM): 0.265
- relative viability (Decitabine + Palbociclib; first compound 0.4 µM): 0.204
- relative viability (Decitabine + Palbociclib; first compound 1.265 µM): 0.202
- relative viability (Decitabine + Palbociclib; first compound 4 µM): 0.221

Cell Line: NCI-H2126
- relative viability (Cediranib + Bortezomib; first compound 0.04 µM): 1.14
- relative viability (Cediranib + Bortezomib; first compound 0.1265 µM): 1.2
- relative viability (Cediranib + Bortezomib; first compound 0.4 µM): 1.09
- relative viability (Cediranib + Bortezomib; first compound 1.265 µM): 0.963
- relative viability (Cediranib + Bortezomib; first compound 4 µM): 1.11
- relative viability (Decitabine + Dasatinib; first compound 0.04 µM): 0.603
- relative viability (Decitabine + Dasatinib; first compound 0.1265 µM): 0.547
- relative viability (Decitabine + Dasatinib; first compound 0.4 µM): 0.429
- relative viability (Decitabine + Dasatinib; first compound 1.265 µM): 0.421
- relative viability (Decitabine + Dasatinib; first compound 4 µM): 0.376
- relative viability (Cediranib + AZD7762; first compound 0.04 µM): 0.985
- relative viability (Cediranib + AZD7762; first compound 0.1265 µM): 1.08
- relative viability (Cediranib + AZD7762; first compound 0.4 µM): 1.01
- relative viability (Cediranib + AZD7762; first compound 1.265 µM): 0.87
- relative viability (Cediranib + AZD7762; first compound 4 µM): 1.05
- relative viability (Decitabine + Palbociclib; first compound 0.04 µM): 0.367
- relative viability (Decitabine + Palbociclib; first compound 0.1265 µM): 0.354
- relative viability (Decitabine + Palbociclib; first compound 0.4 µM): 0.313
- relative viability (Decitabine + Palbociclib; first compound 1.265 µM): 0.36
- relative viability (Decitabine + Palbociclib; first compound 4 µM): 0.372

Cell Line: NCI-H2347
- relative viability (Cediranib + Bortezomib; first compound 0.04 µM): 1.09
- relative viability (Cediranib + Bortezomib; first compound 0.1265 µM): 0.819
- relative viability (Cediranib + Bortezomib; first compound 0.4 µM): 0.93
- relative viability (Cediranib + Bortezomib; first compound 1.265 µM): 1.02
- relative viability (Cediranib + Bortezomib; first compound 4 µM): 0.96
- relative viability (Decitabine + Dasatinib; first compound 0.04 µM): 0.295
- relative viability (Decitabine + Dasatinib; first compound 0.1265 µM): 0.315
- relative viability (Decitabine + Dasatinib; first compound 0.4 µM): 0.351
- relative viability (Decitabine + Dasatinib; first compound 1.265 µM): 0.283
- relative viability (Decitabine + Dasatinib; first compound 4 µM): 0.286
- relative viability (Cediranib + AZD7762; first compound 0.04 µM): 0.808
- relative viability (Cediranib + AZD7762; first compound 0.1265 µM): 0.808
- relative viability (Cediranib + AZD7762; first compound 0.4 µM): 0.755
- relative viability (Cediranib + AZD7762; first compound 1.265 µM): 0.746
- relative viability (Cediranib + AZD7762; first compound 4 µM): 0.691
- relative viability (Decitabine + Palbociclib; first compound 0.04 µM): 0.462
- relative viability (Decitabine + Palbociclib; first compound 0.1265 µM): 0.417
- relative viability (Decitabine + Palbociclib; first compound 0.4 µM): 0.411
- relative viability (Decitabine + Palbociclib; first compound 1.265 µM): 0.423
- relative viability (Decitabine + Palbociclib; first compound 4 µM): 0.437

Cell Line: NCI-H2405
- relative viability (Cediranib + Bortezomib; first compound 0.04 µM): 1.05
- relative viability (Cediranib + Bortezomib; first compound 0.1265 µM): 0.475
- relative viability (Cediranib + Bortezomib; first compound 0.4 µM): 0.982
- relative viability (Cediranib + Bortezomib; first compound 1.265 µM): 0.894
- relative viability (Cediranib + Bortezomib; first compound 4 µM): 0.983
- relative viability (Decitabine + Dasatinib; first compound 0.04 µM): 0.209
- relative viability (Decitabine + Dasatinib; first compound 0.1265 µM): 0.194
- relative viability (Decitabine + Dasatinib; first compound 0.4 µM): 0.286
- relative viability (Decitabine + Dasatinib; first compound 1.265 µM): 0.204
- relative viability (Decitabine + Dasatinib; first compound 4 µM): 0.203
- relative viability (Cediranib + AZD7762; first compound 0.04 µM): 0.749
- relative viability (Cediranib + AZD7762; first compound 0.1265 µM): 1.31
- relative viability (Cediranib + AZD7762; first compound 0.4 µM): 0.594
- relative viability (Cediranib + AZD7762; first compound 1.265 µM): 0.864
- relative viability (Cediranib + AZD7762; first compound 4 µM): 0.803
- relative viability (Decitabine + Palbociclib; first compound 0.04 µM): 0.511
- relative viability (Decitabine + Palbociclib; first compound 0.1265 µM): 0.516
- relative viability (Decitabine + Palbociclib; first compound 0.4 µM): 0.436
- relative viability (Decitabine + Palbociclib; first compound 1.265 µM): 0.397
- relative viability (Decitabine + Palbociclib; first compound 4 µM): 0.349

Cell Line: NCI-H3122
- relative viability (Cediranib + Bortezomib; first compound 0.04 µM): 0.996
- relative viability (Cediranib + Bortezomib; first compound 0.1265 µM): 0.967
- relative viability (Cediranib + Bortezomib; first compound 0.4 µM): 1.01
- relative viability (Cediranib + Bortezomib; first compound 1.265 µM): 1.06
- relative viability (Cediranib + Bortezomib; first compound 4 µM): 1
- relative viability (Decitabine + Dasatinib; first compound 0.04 µM): 0.665
- relative viability (Decitabine + Dasatinib; first compound 0.1265 µM): 0.833
- relative viability (Decitabine + Dasatinib; first compound 0.4 µM): 0.233
- relative viability (Decitabine + Dasatinib; first compound 1.265 µM): 0.321
- relative viability (Decitabine + Dasatinib; first compound 4 µM): 0.459
- relative viability (Cediranib + AZD7762; first compound 0.04 µM): 1.05
- relative viability (Cediranib + AZD7762; first compound 0.4 µM): 0.95
- relative viability (Cediranib + AZD7762; first compound 1.265 µM): 0.969
- relative viability (Cediranib + AZD7762; first compound 4 µM): 1.07
- relative viability (Decitabine + Palbociclib; first compound 0.04 µM): 0.2
- relative viability (Decitabine + Palbociclib; first compound 0.1265 µM): 0.213
- relative viability (Decitabine + Palbociclib; first compound 0.4 µM): 0.183
- relative viability (Decitabine + Palbociclib; first compound 1.265 µM): 0.181
- relative viability (Decitabine + Palbociclib; first compound 4 µM): 0.191

Cell Line: PC-3 [JPC-3]
- relative viability (Cediranib + Bortezomib; first compound 0.04 µM): 0.844
- relative viability (Cediranib + Bortezomib; first compound 0.1265 µM): 0.829
- relative viability (Cediranib + Bortezomib; first compound 0.4 µM): 0.844
- relative viability (Cediranib + Bortezomib; first compound 1.265 µM): 0.924
- relative viability (Cediranib + Bortezomib; first compound 4 µM): 0.809
- relative viability (Decitabine + Dasatinib; first compound 0.04 µM): 0.628
- relative viability (Decitabine + Dasatinib; first compound 0.1265 µM): 0.782
- relative viability (Decitabine + Dasatinib; first compound 0.4 µM): 0.565
- relative viability (Decitabine + Dasatinib; first compound 1.265 µM): 0.437
- relative viability (Decitabine + Dasatinib; first compound 4 µM): 0.399
- relative viability (Cediranib + AZD7762; first compound 0.04 µM): 0.758
- relative viability (Cediranib + AZD7762; first compound 0.4 µM): 0.769
- relative viability (Cediranib + AZD7762; first compound 1.265 µM): 0.749
- relative viability (Cediranib + AZD7762; first compound 4 µM): 0.783
- relative viability (Decitabine + Palbociclib; first compound 0.1265 µM): 0.572
- relative viability (Decitabine + Palbociclib; first compound 0.4 µM): 0.496
- relative viability (Decitabine + Palbociclib; first compound 1.265 µM): 0.493
- relative viability (Decitabine + Palbociclib; first compound 4 µM): 0.511

Cell Line: PC-14
- relative viability (Cediranib + Bortezomib; first compound 0.04 µM): 0.889
- relative viability (Cediranib + Bortezomib; first compound 0.1265 µM): 0.831
- relative viability (Cediranib + Bortezomib; first compound 0.4 µM): 0.734
- relative viability (Cediranib + Bortezomib; first compound 1.265 µM): 0.878
- relative viability (Cediranib + Bortezomib; first compound 4 µM): 0.902
- relative viability (Decitabine + Dasatinib; first compound 0.04 µM): 0.0322
- relative viability (Decitabine + Dasatinib; first compound 0.1265 µM): 0.142
- relative viability (Decitabine + Dasatinib; first compound 0.4 µM): 0.0565
- relative viability (Decitabine + Dasatinib; first compound 1.265 µM): 0.0706
- relative viability (Decitabine + Dasatinib; first compound 4 µM): 0.0858
- relative viability (Cediranib + AZD7762; first compound 0.04 µM): 0.247
- relative viability (Cediranib + AZD7762; first compound 0.1265 µM): 0.377
- relative viability (Cediranib + AZD7762; first compound 0.4 µM): 0.355
- relative viability (Cediranib + AZD7762; first compound 1.265 µM): 0.262
- relative viability (Cediranib + AZD7762; first compound 4 µM): 0.344
- relative viability (Decitabine + Palbociclib; first compound 0.04 µM): 0.435
- relative viability (Decitabine + Palbociclib; first compound 0.1265 µM): 0.36
- relative viability (Decitabine + Palbociclib; first compound 0.4 µM): 0.264
- relative viability (Decitabine + Palbociclib; first compound 1.265 µM): 0.112
- relative viability (Decitabine + Palbociclib; first compound 4 µM): 0.098

Cell Line: RERF-LC-KJ
- relative viability (Cediranib + Bortezomib; first compound 0.04 µM): 1.09
- relative viability (Cediranib + Bortezomib; first compound 0.4 µM): 1.04
- relative viability (Cediranib + Bortezomib; first compound 1.265 µM): 1.11
- relative viability (Cediranib + Bortezomib; first compound 4 µM): 1.17
- relative viability (Decitabine + Dasatinib; first compound 0.04 µM): 0.703
- relative viability (Decitabine + Dasatinib; first compound 0.1265 µM): 0.741
- relative viability (Decitabine + Dasatinib; first compound 1.265 µM): 0.465
- relative viability (Decitabine + Dasatinib; first compound 4 µM): 0.485
- relative viability (Cediranib + AZD7762; first compound 0.04 µM): 0.92
- relative viability (Cediranib + AZD7762; first compound 0.1265 µM): 0.411
- relative viability (Cediranib + AZD7762; first compound 0.4 µM): 0.881
- relative viability (Cediranib + AZD7762; first compound 1.265 µM): 0.725
- relative viability (Cediranib + AZD7762; first compound 4 µM): 0.923
- relative viability (Decitabine + Palbociclib; first compound 0.04 µM): 1.02
- relative viability (Decitabine + Palbociclib; first compound 0.1265 µM): 1.02
- relative viability (Decitabine + Palbociclib; first compound 0.4 µM): 0.404
- relative viability (Decitabine + Palbociclib; first compound 1.265 µM): 0.633
- relative viability (Decitabine + Palbociclib; first compound 4 µM): 0.636
